Key:
DHPS [1] = target: T1, DHPS (Homo sapiens, UniProt P49366); assay: Hyp'Assay: cell-free eIF5A hypusination in 96-well plates (recombinant eIF5A, DHPS, DOHH; anti-hypusine antibody Hpu24), substance present in the DHPS step; format: biochemical; details: for hypusination signal, Mean (quantification from Figure 3B): control 100,0; for concentration from which inhibition of hypusination was detectable / hypusination signal, Mean (quantification from Figure 5A): 5 μM spermidine; for hypusination signal, Mean (quantification from Figure 5A): control 98,5
T1 construct: host or cells: E. coli BL21 (DE3)
T1 sequence (P49366 1-369): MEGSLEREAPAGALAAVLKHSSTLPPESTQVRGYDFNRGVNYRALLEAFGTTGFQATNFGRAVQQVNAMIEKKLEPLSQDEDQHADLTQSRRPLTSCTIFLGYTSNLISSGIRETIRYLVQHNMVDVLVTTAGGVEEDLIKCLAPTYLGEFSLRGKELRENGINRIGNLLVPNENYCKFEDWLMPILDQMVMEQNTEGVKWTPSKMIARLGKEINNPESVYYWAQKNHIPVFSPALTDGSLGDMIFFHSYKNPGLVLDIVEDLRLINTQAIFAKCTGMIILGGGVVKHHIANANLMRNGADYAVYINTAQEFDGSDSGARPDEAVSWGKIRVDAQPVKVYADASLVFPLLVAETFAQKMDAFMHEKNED
Procedure: The principle of the Hyp’Assay (Fig 2A) is to perform eIF5A hypusination reaction in 96-well plates, allow eIF5A to adsorb to the plate, incubate with an anti-hypusine antibody and a secondary antibody conjugated to HRP and reveal hypusination using TMB as a substrate.
(§1) […] Then 10 μL containing 1 μg of DOHH with 10 μM Fe^2+ (H8FeN2O8S2^. 6H2O) were added. After 1 h proteins were analyzed by Western Blot using antibodies toward DHPS, DOHH, Hypusine, and eIF5A.
(§2) The cell-free reaction described in 4.4 is performed in triplicates in a 96-wells plate (MaxiSorp, ThermoFisher) in the presence of 3 μg of eIF5A, 2 μg of DHPS, and 2 μg of DOHH by well. The reaction product, hypusinated eIF5A, is adsorbed onto the plate overnight at 4°C. The plate is washed (100 μL/well) thrice with PBS-T (PBS– 0.05% Tween20), then saturated with 1% non-fat dry milk in PBS-T for 2 h at room temperature. The plate is washed thrice with PBS-T and incubated overnight at 4°C with the anti-hypusine antibody (1:2000 in saturation buffer, 50 μL/well). The next day and after 5 washes with PBS-T, HRP-coupled anti-rabbit secondary antibody diluted 1:5000 in saturation buffer (50 μL/well) is added for 2 h at room temperature.

DOHH = target: T2, DOHH (Homo sapiens, UniProt Q9BU89); assay: Hyp'Assay, substance added after the deoxyhypusination reaction (DOHH step); format: biochemical; details: for hypusination signal, Mean (quantification from Figure 3C): control 100,0
T2 construct: pelB leader (N); host or cells: E. coli BL21 (DE3)
T2 sequence (Q9BU89 1-302): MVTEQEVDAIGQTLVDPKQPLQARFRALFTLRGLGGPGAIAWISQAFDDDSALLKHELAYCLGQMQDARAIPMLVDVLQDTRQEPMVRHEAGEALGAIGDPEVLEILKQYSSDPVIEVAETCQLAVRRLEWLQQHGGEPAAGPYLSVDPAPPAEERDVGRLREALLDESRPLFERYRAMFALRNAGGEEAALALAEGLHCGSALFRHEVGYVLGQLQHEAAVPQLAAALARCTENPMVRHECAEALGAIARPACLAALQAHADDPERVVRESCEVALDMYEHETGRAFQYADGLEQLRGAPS
Procedure: We then tested the ability of DOHH inhibitors to inhibit eIF5A hypusination using the Hyp’Assay. During the Hyp’Assay, DOHH inhibitors were added after the deoxyhypusination reaction.
To address this issue, we compared the ability of GC7 to inhibit DHPS or DOHH by adding GC7 during the first step of the Hyp’Assay; when DHPS mediates the deoxyhypusination reaction (Fig 2A), or only during the second step, when DOHH hydroxylate deoxyhypusinated eIF5A. […] When finding new hypusination inhibitors adding them during the first or the second step of the Hyp’Assay will allow us to determine if the inhibition affects DHPS or DOHH. Another way to discriminate between DHPS or DOHH inhibitors would be to use Hpu98, an antibody that recognized both hypusinated and deoxyhypusinated eIF5A, instead of Hpu24, which is specific for hypusinated eIF5A [18]. […] We performed a new Hyp’Assay by omitting DOHH in the reaction mix and using the Hpu98 antibody. First, we performed a dose response experiment with spermidine at pH: 8.0 and 9.0 (Fig 3E). […] We also tested the ability of GC7 (Fig 3F) and CPX or EDTA (Fig 3G) to inhibit DHPS.
as §1, §2

DHPS [2] = target: T1, DHPS; assay: Hyp'Assay without DOHH: deoxyhypusination of eIF5A revealed with Hpu98 antibody; format: biochemical; details: 5 μM spermidine; CTRL 100,0; inhibitor concentration not given
Source text: To address this issue, we compared the ability of GC7 to inhibit DHPS or DOHH by adding GC7 during the first step of the Hyp’Assay; when DHPS mediates the deoxyhypusination reaction (Fig 2A), or only during the second step, when DOHH hydroxylate deoxyhypusinated eIF5A. […] This confirms the specificity of GC7 towards DHPS. When finding new hypusination inhibitors adding them during the first or the second step of the Hyp’Assay will allow us to determine if the inhibition affects DHPS or DOHH. Another way to discriminate between DHPS or DOHH inhibitors would be to use Hpu98, an antibody that recognized both hypusinated and deoxyhypusinated eIF5A, instead of Hpu24, which is specific for hypusinated eIF5A [18]. […] We performed a new Hyp’Assay by omitting DOHH in the reaction mix and using the Hpu98 antibody. First, we performed a dose response experiment with spermidine at pH: 8.0 and 9.0 (Fig 3E). The Hyp’Assay allows the detection of deoxyhypusinated eIF5A in a spermidine-dependent manner. Under these conditions, deoxyhypusination was equally efficient at both pH tested. […] We also tested the ability of GC7 (Fig 3F) and CPX or EDTA (Fig 3G) to inhibit DHPS. […] This provided us with another method to distinguish between DHPS and DOHH inhibitors.
as §2

[3] = system: eIF5A hypusination in MCF7 cells; assay: eIF5A hypusination in intact MCF7 cells, Western blot; format: cell-based, human; details: 40 μM, 24 h, Ctrl 100, 4 experiments
Procedure: We tested the ability of the GC7 analogs to inhibit hypusination in intact cells. MCF-7 cells (Fig 5B), a classical model of breast cancer cell line, and HT29 cells (Fig 5C), a cell model of colorectal cancer, were treated with 40 μM of GC7, 1, 2, 3, and 4 for 24h. Cells were lysed and analyzed by Western blot. As observed, none of the molecules modified eIF5A expression. […] GC7 analogs inhibited hypusination from 35 to 55%.
The human breast cancer cell line MCF7 (HTB-22 ATCC) and colorectal adenocarcinoma HT29 (HTB-38 ATCC) were cultured in DMEM (Gibco) supplemented with 10% FBS (Dutscher), 10 U/mL penicillin, and […] streptomycin. 1 mM of aminoguanidine was added to the medium to inhibit the degradation of GC7 and polyamines by amine oxidase from the serum and the production of reactive oxygen species. Cells were maintained at 37°C, 5% CO2 in a humid atmosphere.
After treatment, cells were washed with ice-cold PBS and lysed in RIPA Buffer (50 mM Tris pH 7.5, 150 mM NaCl, 0.1% SDS, 0.5% Na Deoxycholate, 5 mM NaF, 2.5 mM Na4P2O7, 1% NP4O) containing a protease inhibitor cocktail (complete Roche). 10 μg of proteins were separated by SDS PAGE and transferred to a PVDF membrane (Immobilon-P Millipore). The membranes were probed with the appropriate primary antibody that was detected by horseradish peroxidase-conjugated secondary antibody (Jackson Immunoresearch) and visualized by chemiluminescence (ECL Amersham RPN 3244) using a Fuji LAS-4000 imager. ImageJ® software was used to quantify band intensity and the ratios of proteins of interest were normalized to a loading control. Full-length Western blots are provided in the supplementary data (S19, S20 Figs).

[4] = concentration 1 (no unit on page; Fig 3B dose-response 0 to 1 mM)
[5] = concentration 10 (no unit on page; Fig 3B dose-response 0 to 1 mM)
[6] = concentration 100 (no unit on page; Fig 3B dose-response 0 to 1 mM)
[7] = concentration 1000 (no unit on page; Fig 3B dose-response 0 to 1 mM)
[8] = concentration 1 (no unit on page; Fig 3C dose-response 0 to 100 μM)
[9] = concentration 10 (no unit on page; Fig 3C dose-response 0 to 100 μM)
[10] = concentration 100 (no unit on page; Fig 3C dose-response 0 to 100 μM)
[11] = concentration 1 (no unit on page; Fig 5A 0 to 1 mM)
[12] = concentration 10 (no unit on page; Fig 5A 0 to 1 mM)
[13] = concentration 100 (no unit on page; Fig 5A 0 to 1 mM)
[14] = concentration 1000 (no unit on page; Fig 5A 0 to 1 mM)

## CCNCCCNCCCNCCCNCC [BENSPM, N1,N11-diethylnorspermine]
DHPS [1]; at 100 μM
  decrease in hypusination: 12%
DHPS [1]; at 1 mM
  inhibition of hypusination: 43%
DHPS [1]; [4]
  hypusination signal, Mean (quantification from Figure 3B): 97,3
DHPS [1]; [5]
  hypusination signal, Mean (quantification from Figure 3B): 101,9
DHPS [1]; [6]
  hypusination signal, Mean (quantification from Figure 3B): 88,5
DHPS [1]; [7]
  hypusination signal, Mean (quantification from Figure 3B): 42,9

## Cc1cc(C2CCCCC2)n(O)c(=O)c1 [CPX, ciclopirox]
DOHH; [8]
  hypusination signal, Mean (quantification from Figure 3C): 97,78
DOHH; [9]
  hypusination signal, Mean (quantification from Figure 3C): 85,18
DOHH; [10]
  hypusination signal, Mean (quantification from Figure 3C): 55,02
DOHH; dose-response 0 to 100 μM
  maximal inhibition: 50%
DHPS [2]
  Relative deoxyhypusination of eIF5A, Mean (quantification from Figure 3F, 3G): 101,2 a.u

## CC(=O)N(O)CCCCCNC(=O)CCC(=O)N(O)CCCCCNC(=O)CCC(=O)N(O)CCCCCN [DFX, deferoxamine]
DOHH; [8]
  hypusination signal, Mean (quantification from Figure 3C): 28,29
DOHH; [9]
  hypusination signal, Mean (quantification from Figure 3C): 58,42
DOHH; [10]
  hypusination signal, Mean (quantification from Figure 3C): 34,21

## C[S+](C)[O-] [DMSO]
DHPS [1]; 10% DMSO of the total reaction mixture
  inhibition of hypusination: 33%
DHPS [1]; standard concentrations of DMSO (less than 10%)
  effect on hypusination of eIF5A: not affected

## O=C(O)CN(CCN(CC(=O)O)CC(=O)O)CC(=O)O [EDTA]
DOHH; at 100 μM EDTA
  maximal inhibition: 80%
DHPS [2]
  Relative deoxyhypusination of eIF5A, Mean (quantification from Figure 3F, 3G): 97,63 a.u

## Nc1nc(=O)c2nc(CNc3ccc(C(=O)N[C@@H](CCC(=O)O)C(=O)O)cc3)cnc2[nH]1 [Folate, folic acid]
DOHH; at 1 μM
  inhibition at 1 µM: 50%
DOHH; [8]
  hypusination signal, Mean (quantification from Figure 3C): 56,38
DOHH; [9]
  hypusination signal, Mean (quantification from Figure 3C): 57,32
DOHH; [10]
  hypusination signal, Mean (quantification from Figure 3C): 65,33

## N=C(N)NCCCCO [compound 1, 4-hydroxybutylguanidine]
[3]
  hypusinated eIF5A, Western blot quantification, Mean (Figure 5B): 65
DHPS [1]
  concentration from which inhibition of hypusination was detectable: 1 µM
DHPS [1]; [11]
  hypusination signal, Mean (quantification from Figure 5A): 70,7
DHPS [1]; [12]
  hypusination signal, Mean (quantification from Figure 5A): 62,5
DHPS [1]; [13]
  hypusination signal, Mean (quantification from Figure 5A): 61,5
DHPS [1]; [14]
  hypusination signal, Mean (quantification from Figure 5A): 55,2

## N=C(N)NCCCCCCO [compound 2, 6-hydroxyhexylguanidine]
[3]
  hypusinated eIF5A, Western blot quantification, Mean (Figure 5B): 44.5
DHPS [1]
  concentration from which inhibition of hypusination was detectable: 1 µM
DHPS [1]; [11]
  hypusination signal, Mean (quantification from Figure 5A): 81,3
DHPS [1]; [12]
  hypusination signal, Mean (quantification from Figure 5A): 64,4
DHPS [1]; [13]
  hypusination signal, Mean (quantification from Figure 5A): 59,1
DHPS [1]; [14]
  hypusination signal, Mean (quantification from Figure 5A): 44,6

## NCCCCN [putrescine]
DHPS [1]; at 1 mM
  inhibition at 1000 µM: 70%
DHPS [1]; [4]
  hypusination signal, Mean (quantification from Figure 3B): 111,3
DHPS [1]; [5]
  hypusination signal, Mean (quantification from Figure 3B): 94,6
DHPS [1]; [6]
  hypusination signal, Mean (quantification from Figure 3B): 95,3
DHPS [1]; [7]
  hypusination signal, Mean (quantification from Figure 3B): 30,5

## NCCCNCCCCNCCCN [spermine]
DOHH; [8]
  hypusination signal, Mean (quantification from Figure 3C): 69,38
DOHH; [9]
  hypusination signal, Mean (quantification from Figure 3C): 59,12
DOHH; [10]
  hypusination signal, Mean (quantification from Figure 3C): 54,32
DHPS [1]; [4]
  hypusination signal, Mean (quantification from Figure 3B): 106,1
DHPS [1]; [5]
  hypusination signal, Mean (quantification from Figure 3B): 114,0
DHPS [1]; [6]
  hypusination signal, Mean (quantification from Figure 3B): 104,5
DHPS [1]; [7]
  hypusination signal, Mean (quantification from Figure 3B): 111,4
DHPS [1]; concentrations up to 1 mM
  effect on eIF5A hypusination: did not affect eIF5A hypusination
DHPS [1]; dose response compared with spermidine (S3 Fig)
  use as alternate DHPS substrate: can be used as a substrate by DHPS in the Hyp’Assay, although with lower efficiency than spermidine
DHPS [1]; substrate concentration 0,01 (mM)
  hypusination signal with the substance as substrate, Mean (quantification from Figure S3): -0,07
DHPS [1]; substrate concentration 0,1 (mM)
  hypusination signal with the substance as substrate, Mean (quantification from Figure S3): 0,01
DHPS [1]; substrate concentration 0,0001 (mM)
  hypusination signal with the substance as substrate, Mean (quantification from Figure S3): 0,19
DHPS [1]; substrate concentration 0,001 (mM)
  hypusination signal with the substance as substrate, Mean (quantification from Figure S3): -0,08
DHPS [1]; substrate concentration 1 (mM)
  hypusination signal with the substance as substrate, Mean (quantification from Figure S3): 2,17
DHPS [1]; substrate concentration 10 (mM)
  hypusination signal with the substance as substrate, Mean (quantification from Figure S3): 21,70
DHPS [1]; substrate concentration 100 (mM)
  hypusination signal with the substance as substrate, Mean (quantification from Figure S3): 39,64
DHPS [1]; substrate concentration 1000 (mM)
  hypusination signal with the substance as substrate, Mean (quantification from Figure S3): 28,97
